According to the supplement of paper PMC10307832:

Key:
Assay in all cases: relative viability (nuclei count vs DMSO), 5 days (fraction); higher = more cells survive
[1] = tested on: NCI-H1793
Method in brief: (§1)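 Lung cancer cell lines were seeded in 1536-well plates and dosed by pin tool the next day, with either a single drug or a fixed anchor-drug dose combined with five library-drug doses (not always all listed) spaced in √10 steps. Five days later, one step fixed the cells and stained their nuclei (final 0.05% Triton X-100, 1% formaldehyde, 1 ug/ml Hoechst), and nuclei were counted on 4× images. Relative viability is the nuclei count in treated wells divided by the count in vehicle wells, and each value is the median of duplicate plates.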

[2] = tested on: LK-2
Method in brief: as §1

[3] = tested on: NCI-H650
Method in brief: as §1

[4] = tested on: NCI-H2347
Method in brief: as §1

[5] = tested on: NCI-H1944
Method in brief: as §1

[6] = tested on: COR-L23
Method in brief: as §1

[7] = tested on: NCI-H1650
Method in brief: as §1

[8] = tested on: NCI-H727
Method in brief: as §1

[9] = tested on: 201T
Method in brief: as §1

[10] = tested on: PC-14
Method in brief: as §1

[11] = tested on: NCI-H460
Method in brief: as §1

[12] = tested on: NCI-H838
Method in brief: as §1

[13] = tested on: SW 1573
Method in brief: as §1

[14] = tested on: A-427
Method in brief: as §1

[15] = tested on: NCI-H23
Method in brief: as §1

[16] = tested on: H3255
Method in brief: as §1

[17] = tested on: SW 900
Method in brief: as §1

[18] = tested on: LCLC-103H
Method in brief: as §1

[19] = tested on: LU99A
Method in brief: as §1

[20] = tested on: PC-3 [JPC-3]
Method in brief: as §1

[21] = tested on: HCC-44
Method in brief: as §1

[22] = tested on: LCLC-97TM1
Method in brief: as §1

`O=C(O)c1ccc(-c2c[nH]c3ncc(-c4ccccc4)cc23)cc1C1CCCC1` + O=C(c1cc(Cc2n[nH]c(=O)c3ccccc23)ccc1F)N1CCN(C(=O)C2CC2)CC1 [Olaparib] (partner 8 µM) was tested, and the relative viability ([1]; first compound 0.04 µM) was 0.878, the relative viability ([1]; first compound 0.1265 µM) was 1.03 and the relative viability ([1]; first compound 0.4 µM) was 0.963. The relative viability ([1]; first compound 1.265 µM) was 0.512, the relative viability ([2]; first compound 0.04 µM) was 0.734 and the relative viability ([2]; first compound 0.1265 µM) was 0.641. It also gave a relative viability ([2]; first compound 0.4 µM) of 0.636, a relative viability ([2]; first compound 1.265 µM) of 0.648 and a relative viability ([3]; first compound 0.04 µM) of 0.372. For the same compound, the relative viability ([3]; first compound 0.1265 µM) was 0.432, the relative viability ([3]; first compound 0.4 µM) was 0.324 and the relative viability ([3]; first compound 1.265 µM) was 0.256. For the same compound, the relative viability ([4]; first compound 0.04 µM) was 0.593, the relative viability ([4]; first compound 0.1265 µM) was 0.608 and the relative viability ([4]; first compound 0.4 µM) was 0.54. For the same compound, the relative viability ([4]; first compound 1.265 µM) was 0.51, the relative viability ([5]; first compound 0.04 µM) was 0.421 and the relative viability ([5]; first compound 0.1265 µM) was 0.444. It also gave a relative viability ([5]; first compound 0.4 µM) of 0.412, a relative viability ([5]; first compound 1.265 µM) of 0.36 and a relative viability ([6]; first compound 0.04 µM) of 0.311. It also gave a relative viability ([6]; first compound 0.1265 µM) of 0.353, a relative viability ([6]; first compound 0.4 µM) of 0.279 and a relative viability ([6]; first compound 1.265 µM) of 0.258. For the same compound, the relative viability ([7]; first compound 0.04 µM) was 0.735, the relative viability ([7]; first compound 0.1265 µM) was 0.815 and the relative viability ([7]; first compound 0.4 µM) was 0.65. The relative viability ([7]; first compound 1.265 µM) was 0.606, the relative viability ([8]; first compound 0.04 µM) was 0.629 and the relative viability ([8]; first compound 0.1265 µM) was 0.713. For the same compound, the relative viability ([8]; first compound 0.4 µM) was 0.633, the relative viability ([8]; first compound 1.265 µM) was 0.563 and the relative viability ([9]; first compound 0.04 µM) was 0.837. The relative viability ([9]; first compound 0.1265 µM) was 0.866, the relative viability ([9]; first compound 0.4 µM) was 0.827 and the relative viability ([9]; first compound 1.265 µM) was 0.775. The relative viability ([10]; first compound 0.04 µM) was 0.234, the relative viability ([10]; first compound 0.1265 µM) was 0.263 and the relative viability ([10]; first compound 0.4 µM) was 0.268. The relative viability ([10]; first compound 1.265 µM) was 0.243, the relative viability ([11]; first compound 0.04 µM) was 0.523 and the relative viability ([11]; first compound 0.1265 µM) was 0.463. The relative viability ([11]; first compound 0.4 µM) was 0.456, the relative viability ([11]; first compound 1.265 µM) was 0.42 and the relative viability ([12]; first compound 0.04 µM) was 0.76. For the same compound, the relative viability ([12]; first compound 0.1265 µM) was 0.858, the relative viability ([12]; first compound 0.4 µM) was 0.732 and the relative viability ([12]; first compound 1.265 µM) was 0.468. For the same compound, the relative viability ([13]; first compound 0.04 µM) was 0.527, the relative viability ([13]; first compound 0.1265 µM) was 0.528 and the relative viability ([13]; first compound 0.4 µM) was 0.427. For the same compound, the relative viability ([13]; first compound 1.265 µM) was 0.341, the relative viability ([14]; first compound 0.04 µM) was 0.706 and the relative viability ([14]; first compound 0.1265 µM) was 0.845. It also gave a relative viability ([14]; first compound 0.4 µM) of 0.644, a relative viability ([14]; first compound 1.265 µM) of 0.573 and a relative viability ([15]; first compound 0.04 µM) of 0.34. It also gave a relative viability ([15]; first compound 0.1265 µM) of 0.33, a relative viability ([15]; first compound 0.4 µM) of 0.289 and a relative viability ([15]; first compound 1.265 µM) of 0.271. For the same compound, the relative viability ([16]; first compound 0.04 µM) was 0.574, the relative viability ([16]; first compound 0.1265 µM) was 0.57 and the relative viability ([16]; first compound 0.4 µM) was 0.514. It also gave a relative viability ([16]; first compound 1.265 µM) of 0.507, a relative viability ([17]; first compound 0.04 µM) of 0.768 and a relative viability ([17]; first compound 0.1265 µM) of 1.04. It also gave a relative viability ([17]; first compound 0.4 µM) of 0.702, a relative viability ([17]; first compound 1.265 µM) of 0.475 and a relative viability ([18]; first compound 0.04 µM) of 0.728. For the same compound, the relative viability ([18]; first compound 0.1265 µM) was 0.771, the relative viability ([18]; first compound 0.4 µM) was 0.758 and the relative viability ([18]; first compound 1.265 µM) was 0.729. For the same compound, the relative viability ([19]; first compound 0.04 µM) was 0.255, the relative viability ([19]; first compound 0.1265 µM) was 0.302 and the relative viability ([19]; first compound 0.4 µM) was 0.255. The relative viability ([19]; first compound 1.265 µM) was 0.25, the relative viability ([20]; first compound 0.04 µM) was 1.07 and the relative viability ([20]; first compound 0.1265 µM) was 1.07. The relative viability ([20]; first compound 0.4 µM) was 1.15, the relative viability ([20]; first compound 1.265 µM) was 0.919 and the relative viability ([21]; first compound 0.04 µM) was 0.998. The relative viability ([21]; first compound 0.1265 µM) was 0.975, the relative viability ([21]; first compound 0.4 µM) was 0.975 and the relative viability ([21]; first compound 1.265 µM) was 0.95. For the same compound, the relative viability ([22]; first compound 0.04 µM) was 0.435, the relative viability ([22]; first compound 0.1265 µM) was 0.54 and the relative viability ([22]; first compound 0.4 µM) was 0.396. It also gave a relative viability ([22]; first compound 1.265 µM) of 0.258.
